Assay results reported in patent US10335504B2, “Heterocyclic molecules for biomedical imaging and therapeutic applications” (Washington University, priority 2013, dated 2019).
Entries after “also recorded” stand apart in the source; their conditions may differ. Where two headings read alike, the source gives them in different places.

Key:
preformed Aβ1-42 fibrils = target: T1, preformed Aβ1-42 fibrils (Homo sapiens, UniProt P05067); assay: Binding assay with preformed Aβ1-42 fibrils/aggregates in PBS (fluorescence)
T1 construct: preformed Aβ1-42 fibrils
T1 sequence (P05067 672-713 limits assumed): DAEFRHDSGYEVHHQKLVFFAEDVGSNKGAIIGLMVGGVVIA
Text: In some embodiments of the present teachings, binding assays to preformed fibrils or AD brain homogenate extracts can be performed using literature procedures (Klunk, W., et al. Uncharged thioflavin-T derivatives bind to amyloid-beta protein with high affinity and readily enter the brain. Life Sci 69, 1471-1484 (2001); Zhen, W., et al. Synthesis and amyloid binding properties of rhenium complexes: preliminary progress towards a reagent for SPECT imaging of Alzheimer's disease brain. J Med Chem 42, 2805-2815 (1999)). Prior to binding assays, the stock solution (2 μM) can be thawed. To aliquots of this stock solution, ^18F-AI-182 (also exemplified for either ^18F-AI-183 or ^18F-AI-187) can be added at various concentrations to a final concentration of 200 nM Aβ fibrils or 200 μL of AD brain extracts (20-25 μg). The aggregate-bound ^18F-AI-182 (or other analogues) can be collected on Whatman GF filters using Brandon M-24R cell harvester, washed, and counted in a γ-counter (Perkin Elmer). Inhibition constants (Ki) can be calculated as described previously (Han, H., Cho, C. & Lansbury, P. J. Technetium complexes for quantification of brain amyloid. J Am Chem Soc 118, 4506-4508 (1996)). Binding assay results can assist in evaluation of target specificity.
Binding assays of F-AI-182 with preformed Aβ1-42 aggregates were performed in PBS. […] Fluorescence was not observed using Aβ aggregates alone in PBS upon excitation at 410 nm (a negative control). […] Comparative analyses can be performed with other compounds such as AV-45, BAYER 94-9172, and AZD4694. An agent can be interacting with either of the two modestly high affinity binding sites (BS1& BS2) or recognizing an entirely new site on Aβ1-42. F-AI-182 can register different complementary binding sites in relation to Aβ-pathophysiology compared to current agents.

Aβ plaques [1] = assay: Staining of human AD brain tissue sections; format: binding; conditions: person with AD
Procedure: Staining experiments were performed with human brain tissues. Tissue samples were obtained from the frontal lobe of clinically and neuropathologically well-characterized cases. The neuropathological diagnosis of AD was based on the criteria of the Consortium to Establish a Registry for Alzheimer's Disease (CERAD) (Mirra, S., et al. The Consortium to Establish a Registry for Alzheimer's Disease (CERAD). Part II. Standardization of the neuropathologic assessment of Alzheimer's disease. Neurology 41, 479-486 (1991)) or the National Institute of Aging-Reagan Institute (NIA-RI) (Hyman, B. & Trojanowski, J. Consensus recommendations for the postmortem diagnosis of Alzheimer disease from the National Institute on Aging and the Reagan Institute Working Group on diagnostic criteria for the neuropathological assessment of Alzheimer disease. J Neuropathol Exp Neurol 56, 1095-1097. (1997)). […]
The fluorescent probe (F-AI-183) labels fibrillar amyloid (arrow). The slides were analyzed on a using a Nikon Ti-E PFS inverted microscope equipped with a Nikon 10×0.3 NA Plan APO objective, Prior H117 ProScan flat top linear encoded stage, and Prior Lumen 200PRO illumination system with standard DAPI and FITC filter sets. […] Images were processed and analyzed using the Image J software package (NIH).

Aβ plaques [2] = target: T2, Aβ plaques (Homo sapiens, UniProt P05067); assay: Ex vivo staining of mouse brain sections; format: binding; conditions: APPsw+/− mice, 24 months old
T2 construct: from tissue; host or cells: brain of APPsw+/-/PS1 (and APPsw+/-) transgenic mice: sections ex vivo, and live animals for multiphoton imaging
T2 sequence (P05067 672-713 limits assumed): as above
Procedure: FIG. 2 illustrates ex vivo staining studies were performed on brain sections (50 μm) of an APPsw^+/−/PS1 mouse (24 months old) and a control WT mouse (BL/6; 24 months old) using well-established procedures. Briefly, tissue sections were immunostained with mouse monoclonal antibody and visualized by donkey-anti-mouse HJ3.4 Aβ monoclonal antibody-Alexa 568 as a positive control. […] By comparison, no staining in WT mice was seen either with F-AI-182 or the antibody indicating the targeting specificity of F-AI-182. The slides were analyzed on a Zeiss LSM 5 PASCAL confocal system coupled to a Zeiss Axiovert 200 microscope.
The slides were analyzed using a Nikon Ti-E PFS inverted microscope equipped with a Nikon 10x 0.3 NA Plan APO objective, Prior H117 ProScan flat top linear encoded stage, and Prior Lumen 200PRO illumination system with standard DAPI and FITC filter sets. The images were acquired using a Photometrics CoolSNAP HQ2 digital camera and MetaMorph microscopy automaton, and imaging software. Images were processed and analyzed using the Image J software package (NIH).

[3] = cited from earlier work
BS1 and BS3 sites = conditions: cited from earlier work
[4] = cited from earlier work; remark: listed apart in the source
[5] = Biodistribution study in normal FVB mice; format: in vivo, mouse; conditions: for tissue uptake at 5 min / tissue uptake at 120 min: mouse, intravenous
Text: In various configurations, agents can be evaluated in part by exploring the tissue distribution and kinetics of ^18F-AI-182 or other agents in normal mice and transgenic mice. Because these heterocyclic molecules can be labeled with ^18F using the methods described herein, biodistribution in normal mice can be determined. In such investigations, BL/6 (control mice; Taconic) or APPsw^+/−/PS1 (transgenic, Taconic) mice can be anesthetized by isoflurane inhalation and injected with ^18F-AI-182 or other agents (20 μCi in 50-100 μl saline) via bolus injection through a tail vein. Animals can be sacrificed by cervical dislocation at 2, 30, 60, and 120 min post-injection (n=2-4) and data can be quantified into % ID/g as described (Sivapackiam, J., et al. Synthesis, molecular structure, and validation of metalloprobes for assessment of MDR1 P-glycoprotein-mediated functional transport. Dalton Trans 39, 5842-5850 (2010)). The brains can be removed and dissected into cerebellums and remaining whole brain fractions prior to weighing and counting to evaluate regional differences in the location of radiotracer in comparison with transgenic mice.
For in vivo imaging of Aβ plaques, the basic pharmacokinetic model in an unaffected normal brain involves high initial penetration of the agent, followed by rapid clearance due to lack of a binding target. However, in AD brains, high initial penetration can be followed by regional retention as the agent binds to Aβ thus leading to differential kinetics. To accomplish this objective, biodistribution studies of ^18F-AI-182 were performed in normal FVB mice for assessment of signal to noise ratios and clearance profiles. Brain uptake of ^18F-AI-182 was analyzed in terms of percent injected dose per gram of the brain tissue (% ID/g). […] This initial brain uptake value (5 min) in normal mice is approximately 15-fold high compared with our Aβ-targeted ^99mTc-Peptides (Harpstrite, S. E., Prior, J., Binz, K., Piwnica-Worms, D. & Sharma, V. ^99mTc-Peptide conjugates for imaging β-amyloid in the brain. ACS Med Chem Lett (2013) under review). […] Net brain uptake of ^18F-AI-182 is 1.2-fold higher than that of ^18F-AV-45. The initial data point for ^18F-AI-182 is at 5 min compared with 2 min for ^18F-AV-45.

Stability in human serum = format: in vitro ADME
Text: In various configurations, identified heterocyclic molecules can be assessed for metabolic stability for use in biomedical imaging applications both in vitro and in vivo using established procedures (e.g., Mathis, C., et al. Synthesis and evaluation of ^11C-labeled 6-substituted 2-arylbenzothiazoles as amyloid imaging agents. J. Med. Chem. 46, 2740-2754 (2003); Sharma, V. Radiopharmaceuticals for assessment of multidrug resistance P-glycoprotein-mediated transport activity. Bioconjug. Chem. 15, 1464-1474 (2004)). In some embodiments, ^18F-AI-182, another agent, or a combination thereof can be incubated in either serum or human serum albumin at time points corresponding to uptake in vivo (5 min to 2 h) and filtered through filters (30 kDa). Free and bound radiotracer can be calculated using previously describe methods (Bartholoma, M. D., et al. Effect of the prosthetic group on the pharmacologic properties of ^18F-labeled rhodamine B, a potential myocardial perfusion agent for positron emission tomography (PET). J Med Chem 55, 11004-11012 (2012)), and can be analyzed by radio-TLC scanner and radio-HPLC. […] Brain tissues, liver, and kidney can be removed (liver and kidney can be used to evaluate their metabolic stability in more stringent in vivo environments), sonicated, extracted and analyzed through radio-TLC and -HPLC.

[6] = cited from earlier work; for brain uptake: normal mice
[7] = Literature biodistribution in normal mice (Choi et al. 2009); format: in vivo, mouse

For `CN(C)c1ccc(/C=C/c2nc3cc(OCCF)ccc3[se]2)cn1` [F-AI-183], the Kd (preformed Aβ1-42 fibrils) was 17 nM, the “detection of Aβ plaques in human AD brain cross-sections of frontal lobe” value (Aβ plaques [1]) was “detection of compact Aβ plaques; also recorded: detected compact Aβ plaques” and the “staining of brain tissue sections” value (Aβ plaques [2]) was “labeling of Aβ plaques”.

In the case of `CN(C)c1ncc(/C=C/c2nc3cc(OCCF)ccc3[se]2)cn1` [F-AI-187], the Kd (preformed Aβ1-42 fibrils) is reported as 1.58 nM.

In the case of `[11CH3]Nc1ccc(-c2nc3ccc(O)cc3s2)cc1` [^11C-PIB, 2-[p-(Methylamino)phenyl]-3-thia-1-aza-5-indanol], the metabolism in vivo [3] is given as “facile metabolism”.

For `CC(=C(C#N)C#N)c1ccc2cc(N(C)CC[18F])ccc2c1` [FDDNP, 2-(1-(6-[(2-[18F]fluoroethyl)(methyl)amino]-2-naphthyl)ethylidene)malononitrile], the “affinity for BS1 and BS3 sites” value (BS1 and BS3 sites) is listed as “low affinity”.

For `[11CH3]Nc1ccc(/C=C/c2ccc(O)cc2)cc1` [SB-13, [^11C]4-N-methylamino-4′-hydroxystilbene], the “biological half-life in serum” value [4] is listed as “low”.

In the case of `CN(C)c1ccc(/C=C/c2nc3ccc(OCC[18F])cc3s2)cn1` [^18F-AI-182], the tissue uptake at 5 min ([5]; FVB, kidney, normal mice, 5 min, read-out: kidney uptake) is reported as 6.76 ± 1.57 %ID/g, the tissue uptake at 120 min ([5]; FVB, kidney, normal mice, 120 min, read-out: kidney uptake) is reported as 1.57 ± 0.08 %ID/g and the tissue uptake at 5 min ([5]; FVB, liver, normal mice, 5 min, read-out: liver uptake) is reported as 16.3 ± 1.41 %ID/g. The tissue uptake at 120 min ([5]; FVB, liver, normal mice, 120 min, read-out: liver uptake) was 2.71 ± 0.21 %ID/g, the “penetration of brain / blood-brain barrier” value ([5]; mice) was “facile penetration of the blood-brain barrier (BBB)” and the tissue uptake at 5 min ([5]; brain, normal FVB mice, 5 min post tail-vein injection, read-out: brain uptake) was 7.28 ± 0.46 %ID/g. The tissue uptake at 120 min ([5]; brain, normal FVB mice, 120 min post tail-vein injection, read-out: brain uptake) was 1.54 ± 0.06 %ID/g, the “5 min/120 min brain clearance ratio” value ([5]; normal mice) was 4.73 and the “initial brain uptake (5 min) compared with Aβ-targeted 99mTc-Peptides” value ([5]; normal mice) was “approximately 15 fold”. The “net brain uptake relative to 18F-AV-45” value ([5]; normal mice) was 1.2 fold, the “blood clearance faster than 18F-AV-45” value ([5]; normal mice, 5 min to 120 min) was 25% and the “metabolism in human serum” value (Stability in human serum; human serum) was “non-metabolized”. For the same compound, the “time until which non-metabolized in human serum” value (Stability in human serum; investigated highest time-point) was “about 30 min”.

In the case of `CNc1ccc(/C=C/c2ccc(OCCOCCOCC[18F])nc2)cc1` [^18F-AV-45], the “biological half-life in serum” value [4] is listed as “low”, the kidney uptake ([6]; 2 min) is listed as 14.19±2.34 % ID/g and the kidney uptake ([6]; 120 min) is listed as 2.19±0.36 % ID/g. For the same compound, the liver uptake ([6]; 120 min) was 4.96±0.90 % ID/g, the brain uptake ([6]; 2 min post-injection) was 7.33±1.54 % ID/g and the brain uptake ([6]; 120 min post-injection) was 1.80±0.07 % ID/g. For the same compound, the “2 min/120 min brain clearance ratio” value [7] was 4.07 and the metabolism in vivo [3] was “facile metabolism”.
